Patent US20070049564A1 (Wyeth, priority 2005, published 2007)
Like-named read-outs stand apart in the source and are kept apart here.

Tests used:
[1] = tested on: E. faecalis GC 4555; experiment: MIC, broth microdilution; settings: Enterococcus faecalis
[2] = tested on: E. faecalis GC 2267; experiment: MIC, broth microdilution; settings: Enterococcus faecalis
[3] = tested on: E. coli GC 2203; experiment: MIC, broth microdilution; settings: Escherichia coli
[4] = tested on: E. coli GC 4560; experiment: MIC, broth microdilution; settings: Escherichia coli
[5] = tested on: E. faecium GC 2243; experiment: MIC, broth microdilution; settings: Enterococcus faecium
Experimental: (§1) Antimicrobial susceptibility testing. The in vitro activities of the antibiotics are determined by the broth microdilution method as recommended by the National Committee for Clinical Laboratory Standards (NCCLS) (1). Mueller-Hinton II broth (MHBII)(BBL Cockeysville, Md.) is the medium employed in the testing procedures. Microtiter plates containing serial dilutions of each antimicrobial agent are inoculated with each organism to yield the appropriate density (10^5 CFU/ml) in a 100 μl final volume. The plates are incubated for 18-22 hours at 35° C. in ambient air.
(§2) Representative compounds were first incubated in mouse serum for an hour prior to the in vitro testing against a panel of selected gram-positive and gram-negative bacteria strains. All compounds were also pre-incubated in water for an hour prior to testing as control.

[6] = tested on: S. aureus GC 6469; experiment: MIC, broth microdilution; settings: Staphylococcus aureus
[7] = tested on: E. coli GC 3226; experiment: MIC, broth microdilution; settings: Escherichia coli
[8] = tested on: E. coli GC 2231; experiment: MIC, broth microdilution; settings: Escherichia coli
Experimental: as §1, §2

[9] = tested on: E. coli GC 2232; experiment: MIC, broth microdilution; settings: Escherichia coli
[10] = tested on: E. coli; experiment: Range of MIC for E. coli strains; settings: Escherichia coli
[11] = tested on: S. typhimurium GC 2172; experiment: MIC, broth microdilution; settings: Salmonella enterica, TYPHIMURIUM
[12] = tested on: E. coli GC 6465; experiment: MIC, broth microdilution; settings: Escherichia coli
[13] = tested on: S. aureus GC 6466; experiment: MIC, broth microdilution; settings: Staphylococcus aureus
[14] = tested on: S. pneumoniae* GC 4465; experiment: MIC, broth microdilution; settings: Streptococcus pneumoniae
[15] = tested on: S. aureus GC 4536; experiment: MIC, broth microdilution; settings: Staphylococcus aureus
[16] = tested on: E. coli GC 2272; experiment: MIC, broth microdilution; settings: Escherichia coli
[17] = tested on: S. aureus GC 6467; experiment: MIC, broth microdilution; settings: Staphylococcus aureus
[18] = tested on: Staph.; experiment: Range of MIC for Staph. strains, including MRSA; settings: Staphylococcus aureus, MRSA
[19] = tested on: E. faecalis GC 2265; experiment: MIC, broth microdilution; settings: Enterococcus faecalis
[20] = tested on: S. agalactiae GC 4564; experiment: MIC, broth microdilution; settings: Streptococcus agalactiae
[21] = GC4555, read-out: MINIMAL INHIBITORY CONCENTRATION MIC, pre-incubated in Mouse Serum
[22] = GC4555, read-out: MINIMAL INHIBITORY CONCENTRATION MIC, pre-incubated in Water
[23] = GC2267, read-out: MINIMAL INHIBITORY CONCENTRATION MIC, pre-incubated in Mouse Serum
[24] = GC2267, read-out: MINIMAL INHIBITORY CONCENTRATION MIC, pre-incubated in Water
[25] = GC2203, read-out: MINIMAL INHIBITORY CONCENTRATION MIC, pre-incubated in Mouse Serum
[26] = GC2203, read-out: MINIMAL INHIBITORY CONCENTRATION MIC, pre-incubated in Water
[27] = GC4560, read-out: MINIMAL INHIBITORY CONCENTRATION MIC, pre-incubated in Mouse Serum
[28] = GC4560, read-out: MINIMAL INHIBITORY CONCENTRATION MIC, pre-incubated in Water
[29] = GC2243, read-out: MINIMAL INHIBITORY CONCENTRATION MIC, pre-incubated in Mouse Serum
[30] = GC2243, read-out: MINIMAL INHIBITORY CONCENTRATION MIC, pre-incubated in Water
[31] = GC6469, read-out: MINIMAL INHIBITORY CONCENTRATION MIC, pre-incubated in Mouse Serum
[32] = GC6469, read-out: MINIMAL INHIBITORY CONCENTRATION MIC, pre-incubated in Water
[33] = GC3226, read-out: MINIMAL INHIBITORY CONCENTRATION MIC, pre-incubated in Mouse Serum
[34] = GC3226, read-out: MINIMAL INHIBITORY CONCENTRATION MIC, pre-incubated in Water
[35] = GC2231, read-out: MINIMAL INHIBITORY CONCENTRATION MIC, pre-incubated in Mouse Serum
[36] = GC2231, read-out: MINIMAL INHIBITORY CONCENTRATION MIC, pre-incubated in Water
[37] = GC2232, read-out: MINIMAL INHIBITORY CONCENTRATION MIC, pre-incubated in Mouse Serum
[38] = GC2232, read-out: MINIMAL INHIBITORY CONCENTRATION MIC, pre-incubated in Water
[39] = 20 h, read-out: Range of MIC, E. coli (Mouse Serum)
[40] = read-out: Minimum inhibitory concentration (MIC), E. coli (mouse serum)
[41] = read-out: Minimum inhibitory concentration (MIC), E. coli (water)
[42] = read-out: Range of MIC, E. coli (Water)
[43] = read-out: MINIMAL INHIBITORY CONCENTRATION MIC, pre-incubated in Mouse Serum
[44] = read-out: MINIMAL INHIBITORY CONCENTRATION MIC, pre-incubated in Water
[45] = GC6465, read-out: MINIMAL INHIBITORY CONCENTRATION MIC, pre-incubated in Mouse Serum
[46] = GC6465, read-out: MINIMAL INHIBITORY CONCENTRATION MIC, pre-incubated in Water
[47] = GC6466, read-out: MINIMAL INHIBITORY CONCENTRATION MIC, pre-incubated in Mouse Serum
[48] = GC6466, read-out: MINIMAL INHIBITORY CONCENTRATION MIC, pre-incubated in Water
[49] = GC4536, read-out: MINIMAL INHIBITORY CONCENTRATION MIC, pre-incubated in Mouse Serum
[50] = GC4536, read-out: MINIMAL INHIBITORY CONCENTRATION MIC, pre-incubated in Water
[51] = GC2272, read-out: MINIMAL INHIBITORY CONCENTRATION MIC, pre-incubated in Mouse Serum
[52] = GC2272, read-out: MINIMAL INHIBITORY CONCENTRATION MIC, pre-incubated in Water
[53] = GC6467, read-out: MINIMAL INHIBITORY CONCENTRATION MIC, pre-incubated in Mouse Serum
[54] = GC6467, read-out: MINIMAL INHIBITORY CONCENTRATION MIC, pre-incubated in Water
[55] = read-out: Minimum inhibitory concentration (MIC), Staph. (mouse serum)
[56] = read-out: Range of MIC, Staph (Mouse Serum)
[57] = GC2265, read-out: MINIMAL INHIBITORY CONCENTRATION MIC, pre-incubated in Mouse Serum
[58] = GC2265, read-out: MINIMAL INHIBITORY CONCENTRATION MIC, pre-incubated in Water
[59] = GC4564, read-out: MINIMAL INHIBITORY CONCENTRATION MIC, pre-incubated in Mouse Serum
[60] = GC4564, read-out: MINIMAL INHIBITORY CONCENTRATION MIC, pre-incubated in Water

Measured: MIC

CCCCN(CC(=O)Nc1cc(N(C)C)c2c(c1O)C(=O)C1=C(O)[C@]3(O)C(=O)C(C(N)=O)=C(O)[C@@H](N(C)C)[C@@H]3C[C@@H]1C2)C(=O)OCOC(=O)c1cc(C)cc(C)c1 [Example 22, ({[(2-{[(5aR,6aS,7S,10aS)-9-(aminocarbonyl)-4,7-bis(dimethylamino)-1,8,10a,11-tetrahydroxy-10,12-dioxo-5,5a,6,6a,7,10,10a,12-octahydrotetracen-2-yl]amino}-2-oxoethyl)(butyl)amino]carbonyl}oxy)methyl 3,5-dimethylbenzoate]
0.5 µg/mL: [4]; [27] | [13]; [47] | [14]; [43]
> 64 µg/mL: [3]; [26] | [4]; [28] | [7]; [34] | [8]; [36] | [9]; [38] | [10]; [41] | [10]; [42] | [11]; [44] | [12]; [46] | [16]; [52] | [17]; [54]
0.5 to 4 µg/mL: [18]; [55] | [18]; [56]
64 µg/mL: [1]; [22] | [2]; [24] | [6]; [32] | [19]; [58]
1 µg/mL: [3]; [25] | [5]; [29] | [14]; [44] | [15]; [49] | [16]; [51] | [20]; [59]
8 µg/mL: [5]; [30] | [7]; [33] | [11]; [43] | [12]; [45] | [20]; [60]
4 µg/mL: [2]; [23] | [6]; [31] | [17]; [53]
1 to 8 µg/mL: [10]; [39] | [10]; [40]
2 µg/mL: [1]; [21] | [8]; [35] | [9]; [37] | [13]; [48] | [15]; [50] | [19]; [57]

CCCCN(CC(=O)Nc1cc(N(C)C)c2c(c1O)C(=O)C1=C(O)[C@]3(O)C(=O)C(C(N)=O)=C(O)[C@@H](N(C)C)[C@@H]3C[C@@H]1C2)C(=O)OCOC(=O)c1cccs1 [Example 23, ({[(2-{[(5aR,6aS,7S,10aS)-9-(aminocarbonyl)-4,7-bis(dimethylamino)-1,8,10a,11-tetrahydroxy-10,12-dioxo-5,5a,6,6a,7,10,10a,12-octahydrotetracen-2-yl]amino}-2-oxoethyl)(butyl)amino]carbonyl}oxy)methyl thiophene-2-carboxylate]
4 µg/mL: [1]; [22] | [5]; [30] | [6]; [31] | [6]; [32] | [11]; [43] | [12]; [45] | [17]; [53] | [19]; [58]
0.25 to 4 µg/mL: [18]; [55] | [18]; [56]
0.25 µg/mL: [13]; [47] | [20]; [59] | [20]; [60]
1 µg/mL: [1]; [21] | [3]; [25] | [9]; [37] | [15]; [49] | [16]; [51] | [19]; [57]
8 µg/mL: [2]; [24] | [4]; [28] | [7]; [33] | [17]; [54]
1 to 8 µg/mL: [10]; [39] | [10]; [40]
> 64 µg/mL: [3]; [26] | [7]; [34] | [8]; [36] | [9]; [38] | [10]; [41] | [10]; [42] | [11]; [44] | [12]; [46] | [16]; [52]
0.5 µg/mL: [4]; [27] | [5]; [29] | [13]; [48]
0.12 µg/mL: [14]; [43] | [14]; [44]
0.5 to 8 µg/mL: [18]; read-out: Minimum inhibitory concentration (MIC), Staph. (water) | [18]; read-out: Range of MIC, Staph (Water)
2 µg/mL: [2]; [23] | [8]; [35] | [15]; [50]
